Measured values taken from ChEMBL document CHEMBL1153834, “Orally administered combined regimens for treatment of Mycobacterium ulcerans infection in mice” (2007).
Values after ≈ are worked out from the molar mass of the structure shown. Active and inactive are the calls of the source. The rule behind the calls is not given here.

What was measured:
Mycobacterium ulcerans [1] = test: Antimycobacterial activity against Mycobacterium ulcerans isolate CU001 infected in BALB/c mouse left hind foot-pad assessed as bacterial load per culture-positive foot-pad at 100 mg/kg, po administered for 5 days per week measured after 4 weeks; format: functional
Mycobacterium ulcerans [2] = test: Antimycobacterial activity against Mycobacterium ulcerans isolate CU001 infected in BALB/c mouse left hind foot-pad assessed as incidence of bacterial infection at 100 mg/kg, po administered for 5 days per week measured after 8 weeks; format: functional, organism-based; parameters: dose 100 mg/kg
Mycobacterium ulcerans [3] = test: Antimycobacterial activity against Mycobacterium ulcerans isolate CU001 infected in BALB/c mouse left hind foot-pad assessed as bacterial load at 100 mg/kg, po administered for 5 days per week measured after 4 weeks; format: functional
Mycobacterium ulcerans [4] = test: Antimycobacterial activity against Mycobacterium ulcerans isolate CU001; format: functional
Mycobacterium ulcerans [5] = test: Antimycobacterial activity against Mycobacterium ulcerans isolate CU001 infected in BALB/c mouse left hind foot-pad assessed as bacterial load at 100 mg/kg, po administered for 5 days per week measured after 8 weeks; format: functional
Mycobacterium ulcerans [6] = test: Antimycobacterial activity against Mycobacterium ulcerans isolate CU001 infected in BALB/c mouse left hind foot-pad assessed as bacterial load per culture-positive foot-pad at 10 mg/kg, po administered for 5 days per week measured after 8 weeks; format: functional
Mycobacterium ulcerans [7] = test: Antimycobacterial activity against Mycobacterium ulcerans isolate CU001 infected in BALB/c mouse left hind foot-pad assessed as incidence of bacterial infection at 10 mg/kg, po administered for 5 days per week measured after 8 weeks; format: functional, organism-based; parameters: dose 10 mg/kg
Mycobacterium ulcerans [8] = test: Antimycobacterial activity against Mycobacterium ulcerans isolate CU001 infected in BALB/c mouse left hind foot-pad assessed as bacterial load at 10 mg/kg, po administered for 5 days per week measured after 8 weeks; format: functional, organism-based; parameters: dose 10 mg/kg
Mycobacterium ulcerans [9] = test: Antimycobacterial activity against Mycobacterium ulcerans isolate CU001 infected in BALB/c mouse left hind foot-pad assessed as bacterial load per culture-positive foot-pad at 10 mg/kg, po administered for 5 days per week measured after 4 weeks; format: functional
Mycobacterium ulcerans [10] = test: Antimycobacterial activity against Mycobacterium ulcerans isolate CU001 infected in BALB/c mouse left hind foot-pad assessed as bacterial load at 10 mg/kg, po administered for 5 days per week measured after 4 weeks; format: functional

`CC[C@H]1OC(=O)[C@H](C)[C@@H](O[C@H]2C[C@@](C)(OC)[C@@H](O)[C@H](C)O2)[C@H](C)[C@@H](O[C@@H]2O[C@H](C)C[C@H](N(C)C)[C@H]2O)[C@](C)(OC)C[C@@H](C)C(=O)[C@H](C)[C@@H](O)[C@]1(C)O` [CLARITHROMYCIN] was tested, and the log10cfu (Mycobacterium ulcerans [1]) was 3.43, the Activity (Mycobacterium ulcerans [2]) was “Active” and the log10cfu (Mycobacterium ulcerans [3]) was 2.53. The MIC (Mycobacterium ulcerans [4]) was 0.5 µg/mL (≈ 0.668 µM) and the log10cfu (Mycobacterium ulcerans [5]) was 1.25.

`COc1c(N2C[C@@H]3CCCN[C@@H]3C2)c(F)cc2c(=O)c(C(=O)O)cn(C3CC3)c12` [MOXIFLOXACIN] showed a log10cfu (Mycobacterium ulcerans [1]) of 3.23, a log10cfu (Mycobacterium ulcerans [3]) of 2.99 and an MIC (Mycobacterium ulcerans [4]) of 0.25 µg/mL (≈ 0.623 µM). For the same compound, the log10cfu (Mycobacterium ulcerans [6]) was 1.72 and the log10cfu (Mycobacterium ulcerans [5]) was 1.25.

`CO[C@H]1/C=C/O[C@@]2(C)Oc3c(C)c(O)c4c(O)c(c(/C=N/N5CCN(C)CC5)c(O)c4c3C2=O)NC(=O)/C(C)=C\C=C\[C@H](C)[C@H](O)[C@@H](C)[C@@H](O)[C@@H](C)[C@H](OC(C)=O)[C@@H]1C` [RIFAMPIN] was tested, and the MIC (Mycobacterium ulcerans [4]) was 2 µg/mL (≈ 2.43 µM), the Activity (Mycobacterium ulcerans [7]) was “Active” and the Activity (Mycobacterium ulcerans [8]) was “Active”. It also gave a log10cfu (Mycobacterium ulcerans [9]) of 1.52 and a log10cfu (Mycobacterium ulcerans [10]) of 0.46.

For `CN[C@@H]1[C@H](O[C@H]2[C@H](O[C@H]3[C@H](O)[C@@H](O)[C@H](N=C(N)N)[C@@H](O)[C@@H]3N=C(N)N)O[C@@H](C)[C@]2(O)C=O)O[C@@H](CO)[C@H](O)[C@H]1O` [STREPTOMYCIN], the MIC (Mycobacterium ulcerans [4]) was 0.5 µg/mL (≈ 0.86 µM).
